According to US11332479B2, “Imidazooxazole derivative having antitumor effect, and pharmaceutical composition including same” (KOREA INSTITUTE OF SCIENCE AND TECHNOLOGY, priority 2016, dated 2022):

Legend:
[1] = molecular target: V600E-B-RAF (Homo sapiens (Human), UniProt P15056, V600E); experiment: Protein kinase enzymatic activity (Reaction Biology kinase hotspot), V600E-B-RAF; type: biochemical; settings: for IC50: read-out: Inhibitory effect against kinase activity of V600E-B-RAF (IC50); for Inhibitory effect against enzymatic activity of V600E-RAF, in words: compared with GW5074 and vemurafenib
Sequence of V600E-B-RAF (P15056 whole entry V600E): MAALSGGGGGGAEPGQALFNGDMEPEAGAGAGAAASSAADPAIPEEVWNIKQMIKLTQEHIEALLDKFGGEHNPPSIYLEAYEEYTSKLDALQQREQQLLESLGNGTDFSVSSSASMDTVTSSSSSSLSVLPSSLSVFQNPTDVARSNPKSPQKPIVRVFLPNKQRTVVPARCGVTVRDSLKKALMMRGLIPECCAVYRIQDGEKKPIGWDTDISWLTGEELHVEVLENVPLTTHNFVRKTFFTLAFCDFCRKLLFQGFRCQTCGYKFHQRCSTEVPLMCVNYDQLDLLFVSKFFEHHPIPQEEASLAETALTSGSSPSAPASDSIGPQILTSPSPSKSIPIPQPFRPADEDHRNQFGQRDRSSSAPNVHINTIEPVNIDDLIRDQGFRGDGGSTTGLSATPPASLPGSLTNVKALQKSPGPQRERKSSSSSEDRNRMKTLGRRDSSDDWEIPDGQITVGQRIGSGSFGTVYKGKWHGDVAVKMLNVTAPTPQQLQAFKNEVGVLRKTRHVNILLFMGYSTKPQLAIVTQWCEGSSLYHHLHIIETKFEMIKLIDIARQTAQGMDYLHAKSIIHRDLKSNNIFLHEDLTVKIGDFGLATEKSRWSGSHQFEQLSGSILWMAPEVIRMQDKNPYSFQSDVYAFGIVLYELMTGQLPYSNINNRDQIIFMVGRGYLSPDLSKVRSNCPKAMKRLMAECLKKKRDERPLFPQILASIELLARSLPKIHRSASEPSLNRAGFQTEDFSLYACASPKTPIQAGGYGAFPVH
Description: (§1) Reaction biology kinase hotspot service (http://www.reactionbiology.com) was used to measure IC50. In a final reaction volume of 25 μL, kinase (5 mU to 10 mU) was incubated with 25 mM Tris (pH 7.5), 0.02 mM EGTA, 0.66 mg/ml of myelin basic protein, 10 mM magnesium acetate, and [^33P-ATP] (specific activity of about 500 CPM/pmol, concentration as required). The reaction was initiated by addition of Mg-ATP mix. After incubation for 40 min at room temperature, the reaction was stopped by addition of 5 μl of a 3% phosphoric acid solution. 10 μL of the reaction was then spotted onto a P30 filtermat and washed three times for 5 minutes in 75 mM phosphoric acid and once in methanol prior to drying and scintillation counting.

[2] = molecular target: B-RAF (Homo sapiens (Human), UniProt P15056); experiment: Protein kinase enzymatic activity (Reaction Biology kinase hotspot), B-RAF; type: biochemical; settings: for Inhibitory effect against enzymatic activity of B-RAF, in words: compared with GW5074 and vemurafenib; for IC50: read-out: Inhibitory effect against kinase activity of B-RAF (IC50)
Sequence of B-RAF (P15056 whole entry): as the sequence (P15056 whole entry V600E) above, with E600V counted along it
Description: as §1

[3] = molecular target: C-RAF (Homo sapiens (Human), UniProt P04049); experiment: Protein kinase enzymatic activity (Reaction Biology kinase hotspot), C-RAF; type: biochemical; settings: for Inhibitory effect against enzymatic activity of C-RAF, in words: compared with GW5074 and vemurafenib; for IC50: read-out: Inhibitory effect against kinase activity of C-RAF (IC50)
Sequence of C-RAF (P04049 whole entry): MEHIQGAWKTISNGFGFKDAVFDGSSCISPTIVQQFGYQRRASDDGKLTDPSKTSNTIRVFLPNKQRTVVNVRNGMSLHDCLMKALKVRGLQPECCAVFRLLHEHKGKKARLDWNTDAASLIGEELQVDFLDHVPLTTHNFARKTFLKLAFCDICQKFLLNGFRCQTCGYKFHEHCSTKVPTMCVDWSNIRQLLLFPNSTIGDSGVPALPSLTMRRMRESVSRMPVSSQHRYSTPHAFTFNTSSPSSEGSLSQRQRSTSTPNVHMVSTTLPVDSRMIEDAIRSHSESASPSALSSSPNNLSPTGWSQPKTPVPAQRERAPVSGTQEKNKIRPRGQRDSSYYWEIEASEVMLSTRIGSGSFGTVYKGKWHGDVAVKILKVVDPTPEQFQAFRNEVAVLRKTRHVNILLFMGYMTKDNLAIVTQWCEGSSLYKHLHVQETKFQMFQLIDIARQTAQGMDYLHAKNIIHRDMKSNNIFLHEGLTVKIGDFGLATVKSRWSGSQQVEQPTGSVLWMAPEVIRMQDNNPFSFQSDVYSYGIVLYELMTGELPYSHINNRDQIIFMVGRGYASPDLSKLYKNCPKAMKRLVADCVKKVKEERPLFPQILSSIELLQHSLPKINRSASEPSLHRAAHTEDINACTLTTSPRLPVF
Description: as §1

[4] = system: A375P cell line xenograft; experiment: Tumor-inhibitory effects in melanoma xenograft mouse model; type: in vivo, nude mice
Description: In this experiment, A375P cell line which is a human-derived malignant melanoma cell line was subcutaneously administered to nude mice to prepare xenograft models, and the test material (compound 2II) was administered to the xenograft models to evaluate anti-cancer effects (G1: an excipient control group, G2: a group administered with 20 mg/kg/day of the test material, and G3: a group administered with 50 mg/kg/day of the test material).

SMILES: O=S(=O)(NCCNc1nccc(-c2c(-c3ccc(F)c(O)c3)nc3sccn23)n1)c1ccccc1 [Compound 46III, N-(2-(4-(6-(4-fluoro-3-hydroxyphenyl)imidazo[2,1-b]thiazol-5-yl)pyrimidin-2-ylamino)ethyl)benzenesulfonamide]
- IC50 [1]: 0.15 nM

SMILES: O=S(=O)(NCCCNc1nccc(-c2c(-c3cccc(O)c3)nc3sccn23)n1)c1ccc(F)cc1 [Compound 31III, 4-Fluoro-N-(3-((4-(6-(3-hydroxylphenyl)imidazo[2,1-b]thiazol-5-yl)pyrimidin-2-yl)amino)propyl)benzenesulfonamide]
- Inhibitory effect against enzymatic activity of B-RAF, in words [2]: excellent inhibitory effects
- Inhibitory effect against enzymatic activity of V600E-RAF, in words [1]: excellent inhibitory effects
- Inhibitory effect against enzymatic activity of C-RAF, in words [3]: excellent inhibitory effects

SMILES: Nc1cc(-c2nc3sccn3c2-c2ccnc(NCCCNS(=O)(=O)c3ccc(F)cc3)n2)ccc1F [Compound 52III, N-(3-((4-(6-(3-amino-4-fluorophenyl)imidazo[2,1-b]thiazol-5-yl)pyrimidin-2-yl)amino)propyl)-4-fluorobenzenesulfonamide]
- IC50 [2]: 2.68 nM
- IC50 [1]: 1.03 nM
- IC50 [3]: 5.41 nM

SMILES: O=S(=O)(NCCCNc1nccc(-c2c(-c3ccc(F)c(O)c3)nc3occn23)n1)c1ccc(Cl)cc1 [70 IV, 4-chloro-N-(3-(4-(6-(4-fluoro-3-hydroxyphenyl)imidazo[2,1-b]oxazol-5-yl)pyrimidin-2-ylamino)propyl)benzenesulfonamide]
- IC50 [1]: 0.15 nM

SMILES: O=S(=O)(NCCNc1nccc(-c2c(-c3ccc(F)c(O)c3)nc3occn23)n1)c1ccc(Cl)cc1 [65 IV, 4-chloro-N-(2-(4-(6-(4-fluoro-3-hydroxyphenyl)imidazo[2,1-b]oxazol-5-yl)pyrimidin-2-ylamino)ethyl)benzenesulfonamide]
- IC50 [1]: 0.37 nM

SMILES: O=S(=O)(NCCNc1nccc(-c2c(-c3ccc(F)c(O)c3)nc3occn23)n1)c1ccc(F)cc1 [64 IV, 4-fluoro-N-(2-(4-(6-(4-fluoro-3-hydroxyphenyl)imidazo[2,1-b]oxazol-5-yl)pyrimidin-2-ylamino)ethyl)benzenesulfonamide]
- IC50 [1]: 0.36 nM

SMILES: O=S(=O)(NCCCNc1nccc(-c2c(-c3ccc(F)c(O)c3)nc3sccn23)n1)c1ccc(F)cc1 [Compound 42III, 4-Fluoro-N-(3-((4-(6-(4-fluoro-3-hydroxyphenyl)imidazo[2,1-b]thiazol-5-yl)pyrimidin-2-yl)amino)propyl)benzenesulfonamide]
- IC50 [1]: 0.36 nM

SMILES: O=S(=O)(NCCNc1nccc(-c2c(-c3cccc(O)c3)nc3sccn23)n1)c1ccc(F)cc1 [Compound 25III, 4-Fluoro-N-(2-((4-(6-(3-hydroxylphenyl)imidazo[2,1-b]thiazol-5-yl)pyrimidin-2-yl)amino)ethyl)benzenesulfonamide]
- Inhibitory effect against enzymatic activity of B-RAF, in words [2]: excellent inhibitory effects
- Inhibitory effect against enzymatic activity of V600E-RAF, in words [1]: excellent inhibitory effects
- Inhibitory effect against enzymatic activity of C-RAF, in words [3]: excellent inhibitory effects

SMILES: COc1ccc(S(=O)(=O)NCCCNc2nccc(-c3c(-c4ccc(F)c(O)c4)nc4sccn34)n2)cc1 [Compound 50III, N-(3-(4-(6-(4-fluoro-3-hydroxyphenyl)imidazo[2,1-b]thiazol-5-yl)pyrimidin-2-ylamino)propyl)-4-methoxybenzenesulfonamide]
- IC50 [1]: 0.05 nM

SMILES: COc1cc(-c2nc3sccn3c2-c2ccnc(NCCCNS(=O)(=O)c3ccc(Cl)cc3)n2)ccc1F [Compound 38III, 4-chloro-N-(3-(4-(6-(4-fluoro-3-methoxyphenyl)imidazo[2,1-b]thiazol-5-yl)pyrimidin-2-ylamino)propyl)benzenesulfonamide]
- IC50 [1]: 1.89 nM

SMILES: COc1cc(-c2nc3occn3c2-c2ccnc(NCCCNS(=O)(=O)c3ccc(Cl)cc3)n2)ccc1F [60 IV, 4-chloro-N-(3-(4-(6-(4-fluoro-3-methoxyphenyl)imidazo[2,1-b]oxazol-5-yl)pyrimidin-2-ylamino)propyl)benzenesulfonamide]
- IC50 [1]: 11.3 nM

SMILES: CCN1CCN(CCNc2nccc(-c3c(-c4ccc(F)c(O)c4)nc4sccn34)n2)S1(=O)=O [Compound 31II]
- IC50 [2]: 4.19 nM
- IC50 [1]: 0.98 nM
- IC50 [3]: 7.83 nM

SMILES: O=S(=O)(NCCCNc1nccc(-c2c(-c3ccc(F)c(O)c3)nc3sccn23)n1)c1ccc(Cl)cc1 [Compound 48III, 4-chloro-N-(3-(4-(6-(4-fluoro-3-hydroxyphenyl)imidazo[2,1-b]thiazol-5-yl)pyrimidin-2-ylamino)propyl)benzenesulfonamide]
- IC50 [1]: 0.27 nM

SMILES: O=S(=O)(NCCNc1nccc(-c2c(-c3ccc(F)c(O)c3)nc3sccn23)n1)c1ccc(Cl)cc1 [Compound 43III, 4-chloro-N-(2-(4-(6-(4-fluoro-3-hydroxyphenyl)imidazo[2,1-b]thiazol-5-yl)pyrimidin-2-ylamino)ethyl)benzenesulfonamide]
- IC50 [1]: 6.96 nM

SMILES: CCN1CCN(CCNc2nccc(-c3c(-c4cccc(O)c4)nc4occn34)n2)S1(=O)=O [Compound 2II, 2-Ethyl-5-(2-((4-(6-(3-hydroxylphenyl)imidazo[2,1-b]oxazol-5-yl)pyrimidin-2-yl)amino)ethyl)-1,2,5-thiadiazolidine 1,1-dioxide]
- General symptoms and deaths ([4]; 20 and 50 mg/kg/day, twice per week for 3 weeks): no deaths or no abnormalities in general symptoms were observed
- Tumor size, difference between all experimental groups ([4]; G1, G2, G3): no significant difference
- Body weight compared with control group (G1) ([4]; G3, 50 mg/kg/day, 14 days and 21 days after administration): significantly low
- Increase of the tumor size ([4]; groups administered with 20 and 50 mg/kg/day): inhibited in a dose-dependent manner
- Inhibitory effect against enzymatic activity of B-RAF, in words [2]: excellent inhibitory effects
- Inhibitory effect against enzymatic activity of V600E-RAF, in words [1]: excellent inhibitory effects
- Inhibitory effect against enzymatic activity of C-RAF, in words [3]: excellent inhibitory effects
- IC50 [3]: 0.75 nM

SMILES: O=S(=O)(NCCCNc1nccc(-c2c(-c3ccc(F)c(O)c3)nc3occn23)n1)c1ccccc1 [73 IV, N-(3-(4-(6-(4-fluoro-3-hydroxyphenyl)imidazo[2,1-b]oxazol-5-yl)pyrimidin-2-ylamino)propyl)benzenesulfonamide]
- IC50 [1]: 0.16 nM

SMILES: CN1CCN(CCNc2nccc(-c3c(-c4cccc(O)c4)nc4occn34)n2)S1(=O)=O [Compound 1II, 2-(2-((4-(6-(3-Hydroxylphenyl)imidazo[2,1-b]oxazol-5-yl)pyrimidin-2-yl)amino)ethyl)-5-methyl-1,2,5-thiadiazolidine 1,1-dioxide]
- Inhibitory effect against enzymatic activity of B-RAF, in words [2]: excellent inhibitory effects
- Inhibitory effect against enzymatic activity of V600E-RAF, in words [1]: excellent inhibitory effects
- Inhibitory effect against enzymatic activity of C-RAF, in words [3]: excellent inhibitory effects
- IC50 [3]: 2.95 nM

SMILES: COc1cc(-c2nc3sccn3c2-c2ccnc(NCCCNS(=O)(=O)c3ccc(F)cc3)n2)ccc1F [Compound 37III, 4-Fluoro-N-(3-((4-(6-(4-fluoro-3-methoxyphenyl)imidazo[2,1-b]thiazol-5-yl)pyrimidin-2-yl)amino)propyl)benzenesulfonamide]
- IC50 [2]: 8.8 nM
- IC50 [1]: 1.66 nM
- IC50 [3]: 13.8 nM

SMILES: COc1ccc(S(=O)(=O)NCCCNc2nccc(-c3c(-c4ccc(F)c(O)c4)nc4occn34)n2)cc1 [72 IV, N-(3-(4-(6-(4-fluoro-3-hydroxyphenyl)imidazo[2,1-b]oxazol-5-yl)pyrimidin-2-ylamino)propyl)-4-methoxybenzenesulfonamide]
- IC50 [1]: 0.08 nM
